In article PMC12261321, “Inhibitors of the Bacterioferritin Ferredoxin Complex Dysregulate Iron Homeostasis and Kill and Biofilm-Embedded Cells” (ACS Infectious Diseases, 2025):
≈ marks a conversion by molar mass, not a printed value.

Key:
[1] = Determination of compound aqueous solubility in M63 media; assay type: physicochemical; details: in M63 media at 35 °C
Procedure: Determination of Compound Aqueous Solubility. Compound stocks (100 mM in DMSO) were prepared from […]
powder and then further diluted with DMSO to prepare 20 mM working solutions, which were diluted as needed […]
in DMSO. 15 µL o f the DMSO solution was then d iluted to a final volume o f 1.0 mL in M63 media. Six solutions […]
were prepared for each compound, each with a distinct concentration and 1.5% DMSO (v/v). 700 µL of each […]
compound solution was transferred to a polystyrene 48-well plate (VWR), followed by acquisition of UV-vis […]
spectra (300 to 700 nm) with the aid of an Epoch 2 microplate reader (B i o Te k ). […]
Following the acquisition of UV-vis spectra, each of the wells in the plate was inspected under a […]
microscope for evidence of precipitation. Evidence of precipitation at any given concentration was determined by observing a shift in the baseline of the UV-vis spectra relative to the blank (M63 media) and/or evidence of visual precipitation with the aid of a micros cope. […]

recombinant Pa BfrB = biological target: T1, recombinant Pa BfrB (Pseudomonas aeruginosa, UniProt Q9HY79); experiment: Dissociation constant (Kd), fluorescence quenching titration of apo Pa BfrB; assay type: binding, P. aeruginosa
T1 construct: made in house; host or cells: E. coli
T1 sequence (Q9HY79 whole entry): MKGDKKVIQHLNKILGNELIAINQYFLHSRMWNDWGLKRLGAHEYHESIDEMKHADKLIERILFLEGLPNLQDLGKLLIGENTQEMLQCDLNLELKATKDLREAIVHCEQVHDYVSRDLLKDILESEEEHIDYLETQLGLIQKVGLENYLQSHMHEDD
Procedure: Measurement of Dissociation Constant (Kd) R ecombinant Pa BfrB was expressed in E. coli and purified as previously reported.19 Apo-BfrB (devoid of heme) was utilized for the measurements to prevent heme-driven fluorescence quenching. A 0.5 mL solution contai ning 0.01 µM apo Pa-BfrB in PBS (pH = 7.4) containing0.5% DMSO was plac ed into a 1 cm quartz cuvette wh ere it was titrated with aliq uots of compound dissolved in a 50% (v/v) PBS/DMSO solution. The fluorescence quenching brought by the addition of each aliquot was monitored with the aid of an Agilent Cary Fluorometer , with excitation at 280 nm, emission at 320- 470 nm, 10 x10 nm slit width, and an average of 5 scans per spectrum. Th e binding assay included at least 8 aliquots spanning from ~ 0.1 […]
A control titration was carried out by titrati ng compound into PBS buffer. The Kd was cal culated by fitting the data to equation S4, w here Fb is the fraction bound and Fmax is the fraction bound at saturating compound concentration.
FFbb = FFmmmmmm ? [ccccmmccccccmmcc ]? (S4) […]

P. aeruginosa PAO1 = experiment: Half maximal inhibitory concentration (IC50), planktonic growth (CFU/mL); assay type: cell-based; details: M63 media, 18 h
Procedure: Measurement of Half Maximal Inhibitory Concentration (IC50). IC50 values were determined as reported earlier13 with some modifications. Compound stock solutions in DMSO (100 mM and 10 mM) were prepared from powd er. To prep are the cell susp ensions utilized in the measu rements, starter cultures o f P. aeru ginosa wer e diluted to an optical density at 600 nm (OD600) = 0.005 in fresh LB media (5 mL) and then cultured at 37°C and 220 rpm for 4 h prior to diluting to an OD600 = 0.0001 in M63. A small volume of compound stock solution w as further diluted in DMSO to 30 µL and then diluted in M63 cell suspension to a final volume of 2.0 mL. The resultant solution was placed in a well of a 96-well plate and then serially 2-fold diluted in M63 cell suspension to produce 6 distinct com pound concent rations, each with 1.5% DMSO. Th e plate was co ver ed and incubated for 18 h at 35 °C in a Synergy H1 plate reader (Biotek). The resultant cell cultures were serially diluted in PBS and then plated on PI Agar plates (PIA; BD biosciences) for counting viable cells (CFU/mL). The % growth was calculated from the ratio CFU/mL(t reat ed )/CFU/mL(untreated control). To calculate the IC50 values, the % growth was plotted as a function of compound concentration expressed as log[compound] ( µM), and fitted to equation S1 describing the sigmoid- shaped response pattern, 14 where b is the slope factor, max is the upper asymptote (plateau), and min is the lower asymptote. IC 50 values are the average and standard deviation from three independent experiments , each conducted with thr ee techni cal replicates.

[2] = tested on: P. aeruginosa PAO1 biofilm; experiment: Pellicle biofilm assay, % survival of biofilm cells; assay type: cell-based; details: 24 h
Procedure: We studied the susceptibility of mature biofilms to treatment with analogues of 4-aminoisoindoline-1,3-dione using biofilms cultured at the […] interface (pellicles) using methodology reported previously. To determine the susceptibility of pellicle biofilms to inhibitors of the Pa Bfr–Bfd complex, we cultured 27 h old biofilms in PI media supplemented with 20 μM Fe, as presented in Experimental Methods. The mature biofilms were transferred onto glass coverslips by touching the pellicle with the surface of the coverslips. The coverslip-adhered biofilms were then exposed to treatment solution consisting of AB media supplemented with 20 μM Fe, 1.5% DMSO, 0.025% HPMC, and 4-aminoisoindoline-1,3-dione derivative or commercial antibiotic for 24 h. The biofilms were then harvested and washed, and the cells were dispersed into sterile PBS by vortexing in the presence of zirconia beads prior to plating and enumerating viable cells (CFU/mL) to calculate % cell survival.
Biofilm Assays. Pellicle biofilms formed by EYF P-expressing P. aeruginosa PAO1 wer e carried ou t as repo rted previously,13 with some modifications. Starter cultures were diluted to OD600 = 0.001 in 4 mL PI media supplement ed with 20 µM Fe , trans ferred to petri dishes (35 x 10 mm) and incubated statically for 27 h at 30 °C.
The pellicles were transferred onto circular microscope glass coverslips (12 mm diameter) by gently allowing the surface of a coverslip to contact the pellicle. Th e biofilm- attached coverslip was washed (3 x) by floating it on top of PBS with the biofilm exposed to the liquid and then placed on top of 1.5 mL AB challenge media in a well of a 12-well microplate, with the biofilm exposed to the media at 30 °C for 24 h. AB challenge media is AB minimal media supplemented with 1.5% DMSO, 0.025% HPMC, 20 μ M Fe, and 4-aminoisoindoline-1,3- dione […]
The 4-aminoisoindoline-1,3- dione derivative solutions were prep ared from powder as 10 mM st ock solutions in DMSO and then diluted in AB challenge media to the appropriate concentrations. Following the 24 h challenge, planktonic and loosely attached cells were washed 3 times by floating the coverslip-attached biofilms with the biofilm facing down into a petri d ish (60 x 15 mm) containing 15 mL PBS, and incubating for 5 min. The biofilm was removed from the coversli p and the cells releas ed f rom the extra cel lular matrix by placing th e cov erslip-attach ed biofi lm in a 50 mL conical tub e containing a 2-mL sup ension of zirconia beads (0.1 mm diam eter, BiosSpec Produ cts), 10 mL PBS, 1 mM MgSO4, 20 µg/mL alginate lyase and 40 µg/mL DNAse. The mixture was incubated for three min at room temperature, and then vigorously vortexed for four min. Following sedimentation of the zirconia beads, a 100 μ L aliquot was utilized for serial dilution in PBS and plating on PIA plates for viable cell enumeration (CFU/mL). […]

[3] = biofilm challenged with 50 µM compound
[4] = M63 media with 1.5% DMSO, 35 °C, aqueous buffer, kinetic from dmso stock

| SMILES | solubility at 4 h [1] | Kd (recombinant Pa BfrB) | IC50, P. aeruginosa PAO1 (P. aeruginosa PAO1; planktonic cells) | % Survival Biofilm, P. aeruginosa PAO1 [2, 3] | solubility at 4 h [1, 4] | IC50 (P. aeruginosa PAO1; Pseudomonas aeruginosa, PAO1, planktonic cells) | IC50 (P. aeruginosa PAO1; planktonic cells) | % Survival Biofilm, P. aeruginosa PAO1 ([2]; biofilm challenged with 20 µM compound) |
| --- | --- | --- | --- | --- | --- | --- | --- | --- |
| Cc1ccc(CNc2cccc3c2C(=O)NC3=O)c(O)c1 [EB-5-69] | 80 µM (≈ 22.6 µg/mL) | 45 ± 6 µM | Not active | 64 ± 1% | – | – | – | – |
| O=C1NC(=O)c2c(NCc3cc(F)ccc3O)cccc21 [JAG-5-7] | – | 24 ± 6 µM | – | 85 ± 16% | 180 µM (≈ 51.5 µg/mL) | 83 ± 19 µM | – | – |
| O=C1NC(=O)c2c(NCc3cccc4c3CCN4)cccc21 [SB-17-140] | – | 37 ± 1 µM | Not active | Not active | 100 µM (≈ 29.3 µg/mL) | – | – | – |
| O=C1NC(=O)c2c(NCc3ccc(Br)cc3O)cccc21 [EB-5-61] | 60 µM (≈ 20.8 µg/mL) | 13 ± 3 µM | – | 8 ± 2% | – | – | 24 ± 2 µM | – |
| O=C1NC(=O)c2c(NCc3cc(Br)ccc3O)ccc(Cl)c21 [SB-16-124] | 20 µM (≈ 7.63 µg/mL) | 11 ± 1 µM | – | – | – | – | 17 ± 2 µM | Not active |
